Results as given in ChEMBL document CHEMBL1145900, “Histone deacetylase inhibitors” (J Med Chem, 2003).
≈ marks a conversion by molar mass, not a printed value.

These molecules were tested on HT-1080 (assay: cells). Settings: Homo sapiens.
Format: functional, cell-based
Description: Inhibitory concentration against HT1080 cells proliferation
In the case of `O=C(CCCCCCNC(=O)c1cc2ccccc2[nH]1)NO`, the IC50 is reported as 140 nM.
With `O=C(CCCCCCNC(=O)C1Cc2ccccc2O1)NO` (stereo unspecified) the IC50 was 760 nM.

Each molecule was assayed against Histone deacetylase (assay: not given). Settings: not given.
Design: species or system Rattus norvegicus
For `O=C(CCCCCN1C(=O)c2ccccc2C1=O)NO`, the IC50 was 515 nM.
`O=C(CCCCCNC(=O)c1ccc([N+](=O)[O-])cc1)NO` gave an IC50 of 1566 nM.
In the case of `CN(C)c1ccc(C(=O)NCCCCCCC(=O)NO)cc1`, the IC50 is reported as 46 nM.
For `CN(C)c1ccc(C(=O)NCCCCC(=O)NO)cc1`, the IC50 was over 10000 nM.
`O=C(CCCCCNC(=O)c1ccc(-c2ccccc2)cc1)NO` showed an IC50 of 265 nM.
For `O=C(CCCCCNC(=O)c1ccc(Cl)cc1)NO`, the IC50 was 369 nM.
In the case of `CN(C)c1ccc(C(=O)NCCCCCCCC(=O)NO)cc1`, the IC50 is reported as 145 nM.
`O=C(CCCCCCC(=O)c1ccccc1)NO` was tested, and the IC50 was 270 nM.
Molecule `CC(C)C[C@H]1C(=O)N[C@H](C(=O)NCCCCCC(=O)NO)Cc2ccc(cc2)OCCCC[C@H]1C(=O)OC(C)(C)C` has an IC50 of 2100 nM.
For `CN(C)c1ccc(C(=O)NCCCCCC(=O)NO)cc1`, the IC50 was 244 nM.

Target: Histone deacetylase
Assay: not given
Format: protein assay, Homo sapiens
Settings: not given
Remark: another data set of the same source
Work on `CC1c2ccccc2CC1C(=O)NCCCCCCC(=O)NO` (stereo unspecified) yielded an IC50 of 732 nM.
`O=C(CCCCCCNC(=O)c1cc2cc(F)ccc2[nH]1)NO` was tested, and the IC50 was 5.4 nM.
`O=C(CCCCCCNC(=O)c1cccc2[nH]ccc12)NO` gave an IC50 of 80.3 nM.
`O=C(CCCCCCNC(=O)c1cc2cc(Br)ccc2[nH]1)NO` showed an IC50 of 3.5 nM.
With `O=C(/C=C/CCCCOc1ccc(-c2ccccc2)cc1)C(F)(F)F` the IC50 was 5000 nM.
Molecule `O=C(CCCCCCNC(=O)c1cc2ccccc2[nH]1)NO` has an IC50 of 14.6 nM.
Work on `COc1cc(OC)c2cc(C(=O)NCCCCCCC(=O)NO)[nH]c2c1` yielded an IC50 of 3.1 nM.
Work on `O=C(CCCCCCC(=O)C(F)(F)F)Nc1cccc(-c2ccccc2)c1` yielded an IC50 of 380 nM.
`O=C(CCCCCCNC(=O)c1cc2cc(Cl)ccc2o1)NO` was tested, and the IC50 was 15 nM.
For `O=C(CCCCCCNC(=O)c1cccc2cc[nH]c12)NO`, the IC50 was 41 nM.
With `O=C(CCCCCCNC(=O)c1c[nH]c2ccccc12)NO` the IC50 was 37.5 nM.
In the case of `O=C(CCCCCCNC(=O)c1ccc[nH]1)NO`, the IC50 is reported as 524 nM.
`COc1ccc2[nH]c(C(=O)NCCCCCCC(=O)NO)cc2c1` gave an IC50 of 6.5 nM.
`COc1cccc2[nH]c(C(=O)NCCCCCCC(=O)NO)cc12` showed an IC50 of 3.1 nM.
Molecule `O=C(CCCCCCNC(=O)c1ccc2cc[nH]c2c1)NO` has an IC50 of 56.5 nM.
With `O=C(CCCCCCNC(=O)c1ccccn1)NO` the IC50 was 1680 nM.
In the case of `O=C(CCCCCCNC(=O)c1ccc2[nH]ccc2c1)NO`, the IC50 is reported as 31.4 nM.
`O=C(CCCCCCNC(=O)c1ccccc1)NO` showed an IC50 of 1006 nM.
`COc1ccc2oc(C(=O)NCCCCCCC(=O)NO)cc2c1` was tested, and the IC50 was 15 nM.
For `O=C(CCCCCCNC(=O)C1Cc2ccccc2O1)NO` (stereo unspecified), the IC50 was 29.6 nM.

Target: Histone deacetylase
Assay: not given
Format: protein assay, Homo sapiens
Settings: not given
Remark: another data set of the same source
For `COc1ccc(C(=O)c2cc(/C=C/C(=O)NO)n(C)c2)cc1`, the IC50 was 2900 nM.
Work on `O=C(NO)c1ccc(CNC(=O)c2ccc3ccccc3c2)cc1` yielded an IC50 of 44 nM.
Molecule `O=C(NO)c1ccc(CNC(=O)c2ccc(-c3ccccc3)cc2)cc1` has an IC50 of 240 nM.
`O=C(/C=C/c1cc(C(=O)c2ccccc2)c[nH]1)NO` showed an IC50 of 5000 nM.
`Cc1ccc(C(=O)c2cc(/C=C/C(=O)NO)n(C)c2)cc1` gave an IC50 of 1900 nM.
`Cn1cc(C(=O)/C=C/c2ccccc2)cc1/C=C/C(=O)NO` was tested, and the IC50 was 1000 nM.
For `Cn1cc(C(=O)c2ccccc2)cc1CCC(=O)NO`, the IC50 was 36800 nM.
`CN(C)c1ccc(C(=O)c2cc(/C=C/C(=O)NO)n(C)c2)cc1` gave an IC50 of 2400 nM.
In the case of `O=C(NCC1CCC(C(=O)NO)CC1)c1ccc(-c2ccccc2)cc1` (stereo unspecified), the IC50 is reported as 310 nM.
For `Cn1cc(C(=O)c2ccccc2)cc1/C=C/C(=O)NO`, the IC50 was 3800 nM.
`Cn1cc(C(=O)c2ccc(Cl)cc2)cc1/C=C/C(=O)NO` showed an IC50 of 2400 nM.
For `O=C(/C=C/c1cc(C(=O)c2ccccc2)cn1-c1ccccc1)NO`, the IC50 was 110000 nM.
Molecule `Cn1cc(C(=O)c2ccc([N+](=O)[O-])cc2)cc1/C=C/C(=O)NO` has an IC50 of 3900 nM.
For `Cn1cc(C(=O)c2ccc(F)cc2)cc1/C=C/C(=O)NO`, the IC50 was 3800 nM.
`O=C(NO)c1ccc(CNC(=O)c2cccc3ccccc23)cc1` gave an IC50 of 830 nM.
`CC(C)n1cc(C(=O)c2ccccc2)cc1/C=C/C(=O)NO` showed an IC50 of 53000 nM.

The molecules below were run against Histone deacetylase (assay: Inhibitory concentration against human Histone deacetylase in Hela cells). Settings: not given.
Format: cell-based
Work on `CC[C@H](C)[C@@H]1NC(=O)[C@H](Cc2cn(OC)c3ccccc23)NC(=O)[C@H](CCCCCC(=O)O)NC(=O)[C@H]2CCCCN2C1=O` yielded an IC50 of 15 nM.
In the case of `CC[C@H](C)[C@@H]1NC(=O)[C@H](Cc2cn(OC)c3ccccc23)NC(=O)[C@H](CCCCCCC(=O)OC)NC(=O)[C@H]2CCCCN2C1=O`, the IC50 is reported as 7 nM.
Work on `CC[C@H](C)[C@@H]1NC(=O)[C@H](Cc2cn(OC)c3ccccc23)NC(=O)[C@H](CCCCC(=O)OC)NC(=O)[C@H]2CCCCN2C1=O` yielded an IC50 of 74 nM.
With `CC[C@H](C)[C@@H]1NC(=O)[C@H](Cc2cn(OC)c3ccccc23)NC(=O)[C@H](CCCCCC(=O)C(C)O)NC(=O)[C@H]2CCCCN2C1=O` (stereo partly specified) the IC50 was 0.3 nM.
`CC[C@H](C)[C@@H]1NC(=O)[C@H](Cc2cn(OC)c3ccccc23)NC(=O)[C@H](CCCCCC(=O)C2CO2)NC(=O)[C@H]2CCCCN2C1=O` (stereo partly specified) was tested, and the IC50 was under 0.1 nM.
With `CCC(=O)C(F)CCCC[C@@H]1NC(=O)[C@H]2CCCCN2C(=O)[C@H]([C@@H](C)CC)NC(=O)[C@H](Cc2cn(OC)c3ccccc23)NC1=O` (stereo partly specified) the IC50 was 110 nM.
`CC[C@H](C)[C@@H]1NC(=O)[C@H](Cc2cn(OC)c3ccccc23)NC(=O)[C@H](CCCCCC(=O)OC)NC(=O)[C@H]2CCCCN2C1=O` was tested, and the IC50 was 0.4 nM.
For `CC[C@H](C)[C@@H]1NC(=O)[C@H](Cc2cn(OC)c3ccccc23)NC(=O)[C@H](CCCCCC(=O)C(C)F)NC(=O)[C@H]2CCCCN2C1=O` (stereo partly specified), the IC50 was 1 nM.
Molecule `CC[C@H](C)[C@@H]1NC(=O)[C@H](Cc2cn(OC)c3ccccc23)NC(=O)[C@H](CCCCCC(=O)NO)NC(=O)[C@H]2CCCCN2C1=O` has an IC50 of 0.2 nM.

These molecules were tested against Histone deacetylase (assay: Inhibitory concentration against isolated Histone deacetylase). Settings: not given.
Format: protein assay, Homo sapiens
For `O=C(NCCSSCCNC(=O)/C(Cc1ccc(O)c(Br)c1)=N/O)/C(Cc1ccc(O)c(Br)c1)=N/O` [PSAMMAPLIN A], the IC50 was 4 nM.
With `Cn1cc(C(=O)Cc2ccccc2)cc1C=C1C(=O)NC(=S)NC1=O` the IC50 was 85000 nM.
With `CCOC(=O)NCCSSCCNC(=O)/C(Cc1ccc(O)c(Br)c1)=N/O` the IC50 was 79 nM.
In the case of `COC(=O)NCCSSCCNC(=O)/C(Cc1ccc(O)c(Br)c1)=N/O` [PSAMMAPLIN D], the IC50 is reported as 44 nM.
`Cn1cc(C(=O)c2ccccc2)cc1/C=C/C#N` gave an IC50 of 70000 nM.
Work on `Cn1cc(C(=O)c2ccccc2)cc1/C=C/C(=N)N` yielded an IC50 of 23000 nM.
`O=C(O)C(=O)NCCSSCCNC(=O)/C(Cc1ccc(O)c(Br)c1)=N/O` gave an IC50 of 2 nM.
Work on `Cn1cc(C(=O)Cc2ccccc2)cc1C=C1C(=O)NC(=O)NC1=O` yielded an IC50 of 104000 nM.
With `NC(=O)C(=O)NCCSSCCNC(=O)/C(Cc1ccc(O)c(Br)c1)=N/O` [PSAMMAPLIN E] the IC50 was 330 nM.

Each molecule was assayed on MDA-MB-435 (assay: cells). Settings: Homo sapiens.
Format: functional, cell-based
Description: Inhibitory concentration against MDA-435 cells proliferation
For `CC(C)C[C@@H]1CC(=O)N([C@@H](Cc2ccccc2)C(=O)NCCCCCC(=O)NO)C1=O`, the IC50 was 670 nM.
With `CCC[C@H]1C(=O)N([C@@H](Cc2ccccc2)C(=O)NCCCCCC(=O)NO)C(=O)[C@@H]1CC(C)C` the IC50 was 570 nM.
With `O=C(CCCCCCNC(=O)c1cc2ccccc2[nH]1)NO` the IC50 was 150 nM.
Molecule `O=C(CCCCCNC(=O)[C@H](Cc1ccccc1)N1C(=O)CCC1=O)NO` has an IC50 of 10000 nM.
`CCC[C@H]1C(=O)N([C@@H](Cc2ccc(OC)cc2)C(=O)NCCCCCC(=O)NO)C(=O)[C@@H]1CC(C)C` showed an IC50 of 180 nM.
Work on `O=C(CCCCCCNC(=O)C1Cc2ccccc2O1)NO` (stereo unspecified) yielded an IC50 of 490 nM.

What follows are molecules tested on Plasmodium falciparum (assay: Inhibitory concentration against Plasmodium falciparum […]). Settings: not given.
Format: functional, organism-based
Work on `CC[C@H](C)[C@@H]1NC(=O)[C@H](Cc2cn(OC)c3ccccc23)NC(=O)[C@H](CCCCCC(=O)O)NC(=O)[C@H]2CCCCN2C1=O` yielded an IC50 of over 1 µg/mL.
Molecule `CC[C@H](C)[C@@H]1NC(=O)[C@H](Cc2cn(OC)c3ccccc23)NC(=O)[C@H](CCCCCCC(=O)OC)NC(=O)[C@H]2CCCCN2C1=O` has an IC50 of 0.5 µg/mL (≈ 0.782 µM).
In the case of `CC[C@H](C)[C@@H]1NC(=O)[C@H](Cc2cn(OC)c3ccccc23)NC(=O)[C@H](CCCCC(=O)OC)NC(=O)[C@H]2CCCCN2C1=O`, the IC50 is reported as over 1 µg/mL.
In the case of `CC[C@H](C)[C@@H]1NC(=O)[C@H](Cc2cn(OC)c3ccccc23)NC(=O)[C@H](CCCCCC(=O)C(C)O)NC(=O)[C@H]2CCCCN2C1=O` (stereo partly specified), the IC50 is reported as 0.022 µg/mL (≈ 0.0344 µM).
`CC[C@H](C)[C@@H]1NC(=O)[C@H](Cc2cn(OC)c3ccccc23)NC(=O)[C@H](CCCCCC(=O)C2CO2)NC(=O)[C@H]2CCCCN2C1=O` (stereo partly specified) was tested, and the IC50 was under 0.015 µg/mL.
`CCC(=O)C(F)CCCC[C@@H]1NC(=O)[C@H]2CCCCN2C(=O)[C@H]([C@@H](C)CC)NC(=O)[C@H](Cc2cn(OC)c3ccccc23)NC1=O` (stereo partly specified) showed an IC50 of 0.7 µg/mL (≈ 1.09 µM).
`CC[C@H](C)[C@@H]1NC(=O)[C@H](Cc2cn(OC)c3ccccc23)NC(=O)[C@H](CCCCCC(=O)OC)NC(=O)[C@H]2CCCCN2C1=O` gave an IC50 of 0.21 µg/mL (≈ 0.336 µM).
Work on `CC[C@H](C)[C@@H]1NC(=O)[C@H](Cc2cn(OC)c3ccccc23)NC(=O)[C@H](CCCCCC(=O)C(C)F)NC(=O)[C@H]2CCCCN2C1=O` (stereo partly specified) yielded an IC50 of 0.028 µg/mL (≈ 0.0436 µM).
`CC[C@H](C)[C@@H]1NC(=O)[C@H](Cc2cn(OC)c3ccccc23)NC(=O)[C@H](CCCCCC(=O)NO)NC(=O)[C@H]2CCCCN2C1=O` showed an IC50 of 0.00024 µg/mL (≈ 0.000383 µM).
